Measured values published in article PMC13408680, “SLC26A11 is an atypical solute carrier with dual transport-channel function mediating lysosomal sulfate transport” (Nature Communications, 2026).
Positions count from the first letter of the chain named.

T1: SLC26A11^ΔC (SLC26A11(ΔC)) (Homo sapiens, UniProt Q86WA9)
T1 construct: C-terminal disordered 23 residues deleted (MD model residues 26-583); expressed in Trichoplusia ni cells by baculovirus; N-glycosylated at Asn-294; homodimer; DDM micelles (DSF), SoyPC/BMP proteoliposomes (transport), MSP1-E3D1 nanodiscs (cryo-EM)
T1 sequence (Q86WA9 1-583): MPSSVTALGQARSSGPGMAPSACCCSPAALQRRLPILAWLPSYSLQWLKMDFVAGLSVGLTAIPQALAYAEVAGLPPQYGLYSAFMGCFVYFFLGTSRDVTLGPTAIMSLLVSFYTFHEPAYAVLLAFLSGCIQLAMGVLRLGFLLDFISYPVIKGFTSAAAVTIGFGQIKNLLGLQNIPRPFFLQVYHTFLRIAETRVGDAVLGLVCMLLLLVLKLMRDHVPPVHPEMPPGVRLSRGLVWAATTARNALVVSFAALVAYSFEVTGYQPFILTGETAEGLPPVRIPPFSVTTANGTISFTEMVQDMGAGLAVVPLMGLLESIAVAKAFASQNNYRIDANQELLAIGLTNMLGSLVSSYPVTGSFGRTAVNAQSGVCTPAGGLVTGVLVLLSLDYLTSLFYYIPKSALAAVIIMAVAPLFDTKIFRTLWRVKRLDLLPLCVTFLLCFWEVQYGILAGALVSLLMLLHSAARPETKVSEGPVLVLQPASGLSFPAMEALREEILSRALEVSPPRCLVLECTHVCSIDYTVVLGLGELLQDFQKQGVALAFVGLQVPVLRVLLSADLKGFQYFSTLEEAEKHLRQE

T2: SLC26A11^ΔC (SLC26A11(ΔC)) (Homo sapiens, UniProt Q86WA9, E320Q)
T2 construct: C-terminal disordered 23 residues deleted (MD model residues 26-583); expressed in Trichoplusia ni cells by baculovirus; N-glycosylated at Asn-294; homodimer; DDM micelles (DSF), SoyPC/BMP proteoliposomes (transport), MSP1-E3D1 nanodiscs (cryo-EM)
T2 sequence (Q86WA9 1-583 E320Q): T1 sequence (Q86WA9 1-583) with E320Q

B1: SLC26A11^ΔC (SLC26A11(ΔC)) (Homo sapiens) (protein)
chain: T1 sequence (Q86WA9 1-583)
notes: C-terminal disordered 23 residues deleted (MD model residues 26-583); expressed in Trichoplusia ni cells by baculovirus; N-glycosylated at Asn-294; homodimer; DDM micelles (DSF), SoyPC/BMP proteoliposomes (transport), MSP1-E3D1 nanodiscs (cryo-EM)

Experiments:
[1] = biological target: T1, SLC26A11^ΔC (SLC26A11(ΔC)); experiment: differential scanning fluorimetry (nanoDSF), anion titration; format: binding; conditions: read-out: apparent KD
[2] = biological target: T2, SLC26A11^ΔC (SLC26A11(ΔC)); experiment: as above; format: binding
purified protein = substrate: O=S(=O)(O)O; experiment: purified protein; format: biochemical, Homo sapiens; conditions: pH out 5.0, pH in 7.5, 50 mM internal chloride, 30 °C, labelled compound

Molecule	Kd [1] [mM]	Kd [2] [mM]	Km (purified protein) [µM]
Cl [chloride]	6 ± 1.4	8.8 ± 1.4	
O=S(=O)(O)O [sulfate]	0.057 ± 0.011	0.019 ± 0.004	
B1			39.7 ± 5.5
